Assay results taken from patent US20240376084A1, “INHIBITORS OF ALPHA-HEMOLYSIN OF STAPHYLOCOCCUS AUREUS” (Helmholtz-Zentrum Fur Infektionsforschung GmbH, priority 2021, published 2024).

Legend:
[1] = molecular target: hemolysin alpha from Staphylococcus aureus (Staphylococcus aureus, UniProt P09616); test: cell-based
[2] = molecular target: S. aureus Alpha hemolysin (Staphylococcus aureus, UniProt P09616); test: cell-based; conditions: A549-LDH Assay activity
S. aureus Alpha hemolysin, sequence (P09616 27-319 limits assumed): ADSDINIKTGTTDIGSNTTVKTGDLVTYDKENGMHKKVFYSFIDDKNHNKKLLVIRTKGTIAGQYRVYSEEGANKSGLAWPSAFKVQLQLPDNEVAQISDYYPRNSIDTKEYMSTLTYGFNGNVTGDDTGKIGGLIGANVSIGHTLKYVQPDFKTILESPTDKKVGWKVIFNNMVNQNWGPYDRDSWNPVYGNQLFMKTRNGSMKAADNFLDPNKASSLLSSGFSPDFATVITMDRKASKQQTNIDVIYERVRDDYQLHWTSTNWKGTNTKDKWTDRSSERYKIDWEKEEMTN

hemolysin alpha from Staphylococcus aureus, sequence (P09616 27-319 limits assumed): as above

Row | SMILES | EC50 [1] [nM] | EC50 [2] [nM] | IC50 [1] [nM]
1 | CC(=O)Nc1cc(-c2ccc(NS(=O)(=O)c3cc4[nH]c(=O)c(=O)[nH]c4cc3C)cc2C(F)(F)F)ccc1O [Compound 346, N-[2-hydroxy-5-[4-[(7-methyl-2,3-dioxo-1,4-dihydroquinoxalin-6-yl)sulfonylamino]-2-(trifluoromethyl)phenyl]phenyl]acetamide] | 30 to 100 | 100 to 1000 | 
2 | COc1ccccc1-c1ccc(NS(=O)(=O)c2cc3[nH]c(=O)c(=O)[nH]c3cc2C)cc1 [Compound 114, N-(2′-methoxy-[1,1′-biphenyl]-4-yl)-7-methyl-2,3-dioxo-1,2,3,4-tetrahydroquinoxaline-6-sulfonamide] |  | 100 to 1000 | 100 to 1000
3 | CC(C)c1cc2[nH]c(=O)c(=O)[nH]c2cc1S(=O)(=O)Nc1ccc(-c2ccsc2)c(Cl)c1 [Compound 100, N-(3-chloro-4-(thiophen-3-yl)phenyl)-7-isopropyl-2,3-dioxo-1,2,3,4-tetrahydroquinoxaline-6-sulfonamide] |  | 1000 to 6000 | 100 to 1000
4 | [2H]C([2H])([2H])c1cc2[nH]c(=O)c(=O)[nH]c2cc1S(=O)(=O)Nc1ccc(OC(F)(F)F)cc1 [Compound 217, 7-(methyl-d3)-2,3-dioxo-N-(4-(trifluoromethoxy)phenyl)-1,2,3,4-tetrahydroquinoxaline-6-sulfonamide] | < 30 | < 30 | 
5 | Cc1cc2[nH]c(=O)c(=O)[nH]c2cc1S(=O)(=O)Nc1ccc(-c2ccc(F)c(F)c2F)c(Cl)c1 [Compound 307, N-[3-chloro-4-(2,3,4-trifluorophenyl)phenyl]-7-methyl-2,3-dioxo-1,4-dihydroquinoxaline-6-sulfonamide] | 30 to 100 | 30 to 100 | 
6 | Cc1cc2[nH]c(=O)c(=O)[nH]c2c(F)c1S(=O)(=O)Nc1ccc(Br)c(Cl)c1 [Compound 63, N-(4-bromo-3-chlorophenyl)-5-fluoro-7-methyl-2,3-dioxo-1,2,3,4-tetrahydroquinoxaline-6-sulfonamide] |  | 1000 to 6000 | 30 to 100
7 | Cc1cc2[nH]c(=O)c(=O)[nH]c2cc1S(=O)(=O)Nc1ccc(-c2ccn3ncnc3c2)c(Cl)c1 [Compound 337, N-[3-chloro-4-([1,2,4]triazolo[1,5-a]pyridin-7-yl)phenyl]-7-methyl-2,3-dioxo-1,4-dihydroquinoxaline-6-sulfonamide] | 30 to 100 | 30 to 100 | 
8 | Cc1cc2[nH]c(=O)c(=O)[nH]c2cc1S(=O)(=O)Nc1ccc(-c2csc(C#N)c2)c(Cl)c1 [Compound 290, N-[3-chloro-4-(5-cyano-3-thienyl)phenyl]-7-methyl-2,3-dioxo-1,4-dihydroquinoxaline-6-sulfonamide] | < 30 | 30 to 100 | 
9 | Cc1cc2[nH]c(=O)c(=O)[nH]c2cc1S(=O)(=O)Nc1ccc(C2=CCOCC2)cc1 [Compound 297, N-[4-(3,6-dihydro-2H-pyran-4-yl)phenyl]-7-methyl-2,3-dioxo-1,4-dihydroquinoxaline-6-sulfonamide] | 100 to 1000 | 100 to 1000 | 
10 | COc1ccc(-c2ccc(NS(=O)(=O)c3cc4[nH]c(=O)c(=O)[nH]c4cc3C)cc2Cl)cc1 [Compound 246, N-[3-chloro-4-(4-methoxyphenyl)phenyl]-7-methyl-2,3-dioxo-1,4-dihydroquinoxaline-6-sulfonamide] | < 30 | 30 to 100 | 
11 | Cc1ccc(-c2c(C)cc(NS(=O)(=O)c3cc4[nH]c(=O)c(=O)[nH]c4cc3C)cc2C)o1 [Compound 84, N-(3,5-dimethyl-4-(5-methylfuran-2-yl)phenyl)-7-methyl-2,3-dioxo-1,2,3,4-tetrahydroquinoxaline-6-sulfonamide] |  | 100 to 1000 | 100 to 1000
12 | Cc1cc2[nH]c(=O)c(=O)[nH]c2cc1S(=O)(=O)Nc1ccc(-c2ccc3c(c2)N(C)CCO3)c(Cl)c1 [Compound 354, N-[3-chloro-4-(4-methyl-2,3-dihydro-1,4-benzoxazin-6-yl)phenyl]-7-methyl-2,3-dioxo-1,4-dihydroquinoxaline-6-sulfonamide] | 30 to 100 | 100 to 1000 | 
13 | Cc1cc2[nH]c(=O)c(=O)[nH]c2cc1S(=O)(=O)Nc1ccc(-c2ccsc2)c(Cl)c1 [Compound 7, N-(3-chloro-4-(thiophen-3-yl)phenyl)-7-methyl-2,3-dioxo-1,2,3,4-tetrahydroquinoxaline-6-sulfonamide] |  | 100 to 1000 | < 30
14 | O=c1[nH]c2cc(Cl)c(S(=O)(=O)Nc3ccc(-c4cccc(N5CCCC5)c4)c(Cl)c3)cc2[nH]c1=O [Compound 21, 7-chloro-N-(2-chloro-3′-(pyrrolidin-1-yl)-[1,1′-biphenyl]-4-yl)-2,3-dioxo-1,2,3,4-tetrahydroquinoxaline-6-sulfonamide] |  | 100 to 1000 | < 30
15 | Cc1cc2[nH]c(=O)c(=O)[nH]c2cc1S(=O)(=O)Nc1ccc(-c2cccc(S(C)(=O)=O)c2)c(Cl)c1 [Compound 313, N-[3-chloro-4-(3-methylsulfonylphenyl)phenyl]-7-methyl-2,3-dioxo-1,4-dihydroquinoxaline-6-sulfonamide] | 100 to 1000 | 100 to 1000 | 
16 | Cc1cc2[nH]c(=O)c(=O)[nH]c2cc1S(=O)(=O)Nc1ccc(-c2ccccc2C(=O)O)cc1 [Compound 182, 4′-((7-methyl-2,3-dioxo-1,2,3,4-tetrahydroquinoxaline)-6-sulfonamido)-[1,1′-biphenyl]-2-carboxylic acid] |  | 1000 to 6000 | 1000 to 3500
17 | Cc1cc(-c2ccc(NS(=O)(=O)c3cc4[nH]c(=O)c(=O)[nH]c4cc3C)cc2Cl)ccn1 [Compound 140, N-(3-chloro-4-(2-methylpyridin-4-yl)phenyl)-7-methyl-2,3-dioxo-1,2,3,4-tetrahydroquinoxaline-6-sulfonamide] |  | 100 to 1000 | 100 to 1000
18 | Cc1cc2[nH]c(=O)c(=O)[nH]c2cc1S(=O)(=O)Nc1ccc(-c2ccc(C#N)cc2)c(Br)c1 [Compound 298, N-[3-bromo-4-(4-cyanophenyl)phenyl]-7-methyl-2,3-dioxo-1,4-dihydroquinoxaline-6-sulfonamide] | < 30 | 30 to 100 | 
19 | Cc1cc2[nH]c(=O)c(=O)[nH]c2cc1S(=O)(=O)Nc1ccc(-c2ccc3c(c2)NC(=O)C3)c(Cl)c1 [Compound 350, N-[3-chloro-4-(2-oxoindolin-6-yl)phenyl]-7-methyl-2,3-dioxo-1,4-dihydroquinoxaline-6-sulfonamide] | 30 to 100 | 30 to 100 | 
20 | C#Cc1cc(NS(=O)(=O)c2cc3[nH]c(=O)c(=O)[nH]c3cc2C)ccc1-c1ccc(C#N)cc1 [Compound 253, N-[4-(4-cyanophenyl)-3-ethynyl-phenyl]-7-methyl-2,3-dioxo-1,4-dihydroquinoxaline-6-sulfonamide] | < 30 | 30 to 100 | 
21 | O=c1[nH]c2cc(Cl)c(S(=O)(=O)Nc3ccc(-c4cccc(Cl)c4)c(Cl)c3)cc2[nH]c1=O [Compound 35, 7-chloro-N-(2,3′-dichloro-[1,1′-biphenyl]-4-yl)-2,3-dioxo-1,2,3,4-tetrahydroquinoxaline-6-sulfonamide] |  | 100 to 1000 | < 30
22 | Cc1cc2[nH]c(=O)c(=O)[nH]c2cc1S(=O)(=O)Nc1ccc(-c2ccc(C(F)(F)F)cc2)c(Cl)c1 [Compound 317, N-[3-chloro-4-[4-(trifluoromethyl)phenyl]phenyl]-7-methyl-2,3-dioxo-1,4-dihydroquinoxaline-6-sulfonamide] | 100 to 1000 | 1000 to 6000 | 
